Read-outs that look alike come from different tables or passages of the source.
What was measured:
[1] = set-up: species or system human; details: in vivo
red blood cell SNO-Hb = experiment: Circulating SNO-Hb following brain death in swine ventilated with ENO (Example 1); format: in vivo; details: 12 hours after brain death
Procedure: The level of circulating SNO-Hb following brain death in three groups of swine was measured. […] FIG. 1 is a bar graph illustrating the results of administering ENO to an organ after brain death.

[2] = Creatinine and AST levels following brain death in swine with or without ENO (Example 2); format: in vivo
Procedure: The levels of creatinine and aspartate aminotransferase (AST) were monitored in two groups of swine following brain death. The level of creatinine is indicative of kidney function. The level of AST is indicative of liver function. For each groups a base line blood sample was taken, brain death was induced, and the second sample was taken after 12 h with or without 50 ppm ENO mixed into the ventilation circuit. […] AST increased in both groups but the magnitude of the increase with ENO was half that observed in the control group (35 to 79 U/l v. 30 to 145 U/l).

[3] = ENO administration to organ donors before or during organ procurement (Examples 8-11); format: in vivo, human
Procedure: A living kidney donor is administered ENO via inhalation during an open nephrectomy or as part of the insufflation gas during a laparoscopic donor nephrectomy. ENO is provided in pressurized cylinders for delivery through the ventilation or insufflation devices. The amount of ENO delivered can be titrated based on blood gas or organ blood flow changes.
A catheter is placed in a large vein of a brain dead patient. The catheter contains a cylindrical bundle of microporous hollow fiber membranes woven into a mat at the end. The catheter is placed within the central venous blood stream in the primary vein that returns blood to the heart. […] A respiratory system is activated and oxygen with 50 ppm ENO flows from a console outside the patient, through the catheter and through the hollow fibers. The fiber membranes are permeable to gases. As a result, oxygen and ENO diffuses into the blood stream from the fibers, while carbon dioxide (CO2) diffuses out of the blood stream into the fibers. Excess O2 and CO2 are removed back through the catheter to the external console.
Patient on respiratory is pronounced dead. Creatine phosphokinase (CPK) leak is indicative of cardiac injury. Patient is started on ENO 20 ppm and further CPK leak is prevented.
Patient dies. […] Kidney function is preserved over durations usually associated with decline in function.

[4] = Physiological response of sheep to simulated altitude with or without ENO (Example 12); format: in vivo; details: simulated altitude −4,500 meters, inhalation of 50 ppm ENO
[5] = Brain dead cat ventilated with ENO before kidney donation (Example 20); format: in vivo; details: Example 20: brain dead cat ventilated with oxygen and 50 ppm ENO, 24 hours
Description: A pet owner presents at a state veterinary college with her cat that was recently struck by car. […] The owner is informed that her cat is brain dead and then provided details about a feline kidney donation program—the owner agrees to have her pet's kidneys transplanted. The animal is intubated and ventilated with oxygen augmented with 50 ppm ENO to preserve organ physiologic status while potential recipients are identified. Two clients of the vet school who own cats with end-stage renal disease are contacted and are grateful for the opportunity to have their pets receive a healthy kidney.

[6] = Example 11: deceased patient, ENO 20 ppm

Q: Which “breathing disorder at altitude” value [1] does the source give for `CCON=O` [ENO, ethyl nitrite] here?
A: not exacerbated

Q: And the “dyspnea during commercial flight” value [1]?
A: breathing normally

Q: And the “occurrence of Acute Mountain Sickness” value [1]?
A: No individuals experiences Acute Mountain Sickness

Q: What about the “signs of altitude sickness at altitude (prevention)” value [1] of the same compound?
A: no sign of altitude sickness

Q: And the “symptoms of altitude mountain sickness” value [1]?
A: abate

Q: What about the “symptoms of high altitude cerebral edema” value ([1]; iv) of the same compound?
A: abate

Q: And the “symptoms of high altitude pulmonary edema” value ([1]; iv)?
A: abate

Q: What about the “symptoms of altitude mountain sickness” value ([1]; po) of the same compound?
A: abate

Q: And the “change from baseline in red blood cell SNO-Hb concentration” value (red blood cell SNO-Hb; swine ventilated with 20 ppm ENO)?
A: an increase in SNO-Hb

Q: And the “change from baseline in red blood cell SNO-Hb concentration” value (red blood cell SNO-Hb; swine ventilated with 50 ppm ENO)?
A: an increase in SNO-Hb

Q: What about the “AST level, second sample after 12 h” value ([2]; 50 ppm ENO in ventilation circuit, 12 h after brain death) of the same compound?
A: 79 U/l

Q: And the “creatinine level (kidney function)” value ([2]; 50 ppm ENO in ventilation circuit, 12 h after brain death vs base line)?
A: unchanged

Q: And the “magnitude of the AST increase relative to control group” value ([2]; 50 ppm ENO, 12 h after brain death)?
A: half

Q: And the “AST level, base line sample” value ([2]; ENO group, base line before brain death)?
A: 35 U/l

Q: And the kidney transplantation outcome ([3]; Example 8: living kidney donor, ENO via inhalation or insufflation gas during nephrectomy)?
A: successfully transplanted

Q: What about the liver transplantation outcome ([3]; Example 9: brain dead patient, oxygen with 50 ppm ENO via intravascular catheter) of the same compound?
A: successfully transplanted

Q: And the heart transplantation outcome ([3]; Example 10: ENO 20 ppm, heart harvested 24 hours later)?
A: successfully transplanted

Q: And the “creatine phosphokinase (CPK) leak (cardiac injury)” value ([3]; Example 10: patient pronounced dead, ENO 20 ppm)?
A: prevented

Q: What about the graft rejection [3, 6] of the same compound?
A: neither early nor late rejection is observed

Q: And the kidney transplantation outcome [3, 6]?
A: successfully transplanted

Q: And the renal function [3, 6]?
A: does not decline

Q: And the “cardiac output, hypoxia/high-altitude-induced increase” value [4]?
A: reducing

Q: What about the “pulmonary arterial pressure (PAP), hypoxia/high-altitude-induced increase” value [4] of the same compound?
A: reducing

Q: What about the “pulmonary vascular resistance (PVR), hypoxia/high-altitude-induced increase” value [4] of the same compound?
A: reducing

Q: And the “systemic vascular resistance (SVR)” value [4]?
A: restoring SVR

Q: What about the “organ function of donor” value [5] of the same compound?
A: maintained organ function
